“And” between values parts separate entries of the source, which are not always exact repeats. Equal entries are not always repeated. A value given as a limit tells only on which side of the number the result lay.

Usually viability, T/C stands for the result in the treated group divided by that in the control group, in per cent. As a reminder, the IC50 is the concentration that inhibits the measured activity by half.

The assay relates to 156681-154-R-J1-PDC tumor spheroids, viability % test/control. Nature of the assay: Anticancer human tumor 156681-154-R-J1-PDC patient-derived melanoma cell line growth inhibition [TAK]. To be noted: spheroids with HUVEC and MSC; for viability, T/C: stronger effect = lower value. The source says:
Combinatorial screen of targeted agents with TAK-243 and ipatasertib in multi-cell type tumor spheroids
A high-throughput screen of multi-cell type tumor spheroids was designed to identify active combinations of targeted small molecules and TAK-243 or ipatasertib. Complex spheroids include a stromal component modeled by human endothelial cells (HUVEC) and fibroblasts modeled by human mesenchymal stem cells (MSCs). The concentration ranges selected for each drug and investigational agent were based upon clinically achievable concentrations if the clinical Cmax of the agent was known.
Compounds. The drugs and investigational agents: TAK-243 (785004), ipatasertib (767898), everolimus (733504), selumetinib (741078), bortezomib (756655), trametinib (758246), ixazomib (758254), vemurafenib (761431), dabrafenib (764134), sapanisertib (764658), alpelisib (765974), and copanlisib (816437), were obtained from the National Cancer Institute (NCI) Developmental Therapeutics Program Chemical Repository. The FDA-approved anticancer drug set is available from the NCI Developmental Therapeutics Program. […] The stock solutions were prepared in dimethyl sulfoxide (DMSO, Sigma-Aldrich, St. Louis, MO, cat. D2650) at 800-fold the tested concentration and stored at -70 degrees C prior to their use. All drugs and investigational agents were tested over a range starting from a high concentration at or near the clinical Cmax and decreasing in half-log increments. If the clinical Cmax for an agent had not been determined, the highest concentration tested was 10 microM.
NCI60 Cell Culture. NCI60 cell lines were obtained from the NCI Developmental Therapeutics Program Tumor Repository. For each lot of cells, the Repository performed Applied Biosystems AmpFLSTR Identifiler testing with PCR amplification to confirm consistency with the published Identifier STR profile for each cell line. Cells were kept in continuous culture for no more than 20 passages. The optimal seeding densities for each of the cell lines at each time point assessed were determined prior to performing the concentration response studies. Briefly, the NCI60 human tumor lines were grown as monolayers in RPMI 1640 medium supplemented with 10% FBS and 2 mmol/L L-glutamine.
An additional 2 lines were from the NCI60 cell line panel including melanomas, MALME-3M and SK-MEL-2. Pooled donor human umbilical vein endothelial cells (HUVEC, Lonza, cat. CC-2519) and human mesenchymal stem cells (hMSC, Lonza, cat. PT-2501) were purchased from Lonza (Walkersville, MD).
PDMR cell lines were grown in complete medium (DC medium): Dulbecco's modified Eagle's medium (DMEM)/F12 supplemented with 5% fetal bovine serum (FBS), 2 mM L-glutamine, 100 U/mL penicillin and 100 µg/ml streptomycin, 0.4 µg/ml hydrocortisone, 10 ng/ml epidermal growth factor (EGF) recombinant human protein, 24 µg/mL adenine, and 0.1 mg/mL primocin. During culture from frozen stock vials, PDMR cells were cultured in the same medium containing 10 µM Y-27632 (see Table 3). The PDCs were cultured in complete DMEM/F12 media without 10 microM Y-27632 dihydrochloride for at least two passages prior to the screen. The pooled donor HUVEC and hMSC were cultured in endothelial cell growth medium 2 (PromoCell, Heidelberg, Germany, cat. C-22011) and mesenchymal stem cell growth medium 2 (PromoCell, cat. C-28009), respectively. For all experiments, HUVEC and hMSC were used at passages </=5.
For the pre-screen, cell seeding densities were determined from a titration spanning the range from 5,000 to 313 cells per well. The mct-spheroids including 60% malignant cells, 25% HUVEC and 15% MSC dispensed as a mixture into U-bottom Ultra-Low Attachment 384-well plates (Corning, NY)
High-throughput Drug Combination Screening.
Prior to their inoculation into 384-well plates, malignant cells, HUVEC, and hMSC were removed from T flasks using TrypLE express (Thermo Fisher Scientific, cat. 12605036) and harvested by centrifugation for 5 min at 233 x g. […]
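Further: spheroids exposed to compounds for 7 days before the endpoint.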

As to `CC(C)CC(NC(=O)C(Cc1ccccc1)NC(=O)c1cnccn1)B(O)O` (stereo not given), the viability, T/C by setting is: (compound 31.6 pM) 91.3% and 98.6%; (compound 0.0001 µM) 90.4% and 95.9%; (compound 0.000316 µM) 98.8% and 103%; (compound 0.001 µM) 94.7% and 103%; (compound 0.00316 µM) 39.8% and 19.6%; (compound 0.01 µM) 0.36% and 0.32%. For the same compound, the IC50 (curve of compound) is 2.55 nM and 2.05 nM.

Turning to `Cn1cnc2c(F)c(Nc3ccc(Br)cc3Cl)c(C(=O)NOCCO)cc21`, the viability, T/C (compound 0.00949 µM) was 95.4% and 99.5%; the viability, T/C (compound 0.03 µM) was 92.4% and 89.7%; the viability, T/C (compound 0.0949 µM) is 97.8% and 89.7%; the viability, T/C (compound 0.3 µM) was 93.4% and 95.4%; the viability, T/C (compound 0.949 µM) was 41.3% and 32.8%; the viability, T/C (compound 3 µM) is 13% and 12.3%. For the same compound, the half-maximal inhibitory concentration (IC50) (curve of compound) was 782 nM and 685 nM.

Turning to `CC(C)NCC(C(=O)N1CCN(c2ncnc3c2C(C)CC3O)CC1)c1ccc(Cl)cc1` (stereo not given), the viability, T/C is 99.2% [middle of 10 runs] (compound 0.3 µM); 91.1% [middle of 10 runs] (compound 0.949 µM); 70.3% [middle of 10 runs] (compound 3 µM); 41.4% [middle of 10 runs] (compound 9.49 µM); 19.1% [middle of 10 runs] (compound 30 µM). Also, the IC50 (compound alone, run of 02/20/2020) was 6.66 µM [middle of 10 runs].

Turning to `CC(C)(C)c1nc(-c2cccc(NS(=O)(=O)c3c(F)cccc3F)c2F)c(-c2ccnc(N)n2)s1`, the viability, T/C (compound 0.0316 µM) is 106% and 91.4%; the viability, T/C (compound 0.1 µM) was 95.8% and 92.3%; the viability, T/C (compound 0.316 µM) is 41.5% and 37.8%; the viability, T/C (compound 1 µM) was 17.2% and 17.8%; the viability, T/C (compound 3.16 µM) is 14.4% and 14.5%; the viability, T/C (compound 10 µM) is 18%. For the setting “curve of compound”, the half-inhibitory concentration (IC50) was 264 nM and 243 nM.

For `CCCS(=O)(=O)Nc1ccc(F)c(C(=O)c2c[nH]c3ncc(-c4ccc(Cl)cc4)cc23)c1F` + CC(C)NCC(C(=O)N1CCN(c2ncnc3c2C(C)CC3O)CC1)c1ccc(Cl)cc1, the concentration for half-maximal inhibition (IC50) was 8190 nM (curve of first compound, second compound 0.3 µM); 7510 nM (curve of first compound, second compound 0.949 µM); 3820 nM (curve of first compound, second compound 3 µM); under 316 nM (curve of first compound, second compound 9.49 µM); under 316 nM (curve of first compound, second compound 30 µM). Moreover, the viability, T/C is 104% (second compound 0.3 µM, first compound 0.316 µM); 111% (second compound 0.3 µM, first compound 1 µM); 103% (second compound 0.3 µM, first compound 3.16 µM); 24.5% (second compound 0.3 µM, first compound 10 µM); 0.49% (second compound 0.3 µM, first compound 31.6 µM); 91.8% (second compound 0.3 µM, first compound 100 µM). Moreover, the viability, T/C is 89.5% (second compound 0.949 µM, first compound 0.316 µM); 101% (second compound 0.949 µM, first compound 1 µM); 85.2% (second compound 0.949 µM, first compound 3.16 µM); 15.7% (second compound 0.949 µM, first compound 10 µM); 16.6% (second compound 0.949 µM, first compound 31.6 µM); 82.9% (second compound 0.949 µM, first compound 100 µM). For the same compound, the viability, T/C by setting is: (second compound 3 µM, first compound 0.316 µM) 83%; (second compound 3 µM, first compound 1 µM) 72.8%; (second compound 3 µM, first compound 3.16 µM) 58.8%; (second compound 3 µM, first compound 10 µM) 6.57%; (second compound 3 µM, first compound 31.6 µM) 3.37%; (second compound 3 µM, first compound 100 µM) 3.64%. The viability, T/C runs as follows: (second compound 9.49 µM, first compound 0.316 µM) 41.6%; (second compound 9.49 µM, first compound 1 µM) 42.8%; (second compound 9.49 µM, first compound 3.16 µM) 36.5%; (second compound 9.49 µM, first compound 10 µM) 1.52%; (second compound 9.49 µM, first compound 31.6 µM) 0.38%; (second compound 9.49 µM, first compound 100 µM) 0.73%. Further, the viability, T/C was 19.2% (second compound 30 µM, first compound 0.316 µM); 19.2% (second compound 30 µM, first compound 1 µM); 4.74% (second compound 30 µM, first compound 3.16 µM); 0.42% (second compound 30 µM, first compound 10 µM); 0.39% (second compound 30 µM, first compound 31.6 µM); 0.5% (second compound 30 µM, first compound 100 µM).

For `COC1CC2CCC(C)C(O)(O2)C(=O)C(=O)N2CCCCC2C(=O)OC(C(C)CC2CCC(OCCO)C(OC)C2)CC(=O)C(C)C=C(C)C(O)C(OC)C(=O)C(C)CC(C)C=CC=CC=C1C` (stereo not given), the viability, T/C reads like this: (compound 0.000316 µM) 98.5% and 87%; (compound 0.001 µM) 81.8% and 87.3%; (compound 0.00316 µM) 70% and 71.2%; (compound 0.01 µM) 59.4% and 64.1%; (compound 0.0316 µM) 62.3% and 59.9%; (compound 0.1 µM) 46% and 51.8%. In addition, for the setting “curve of compound”, the IC50 was 92.9 nM and > 100 nM.

For `CCCS(=O)(=O)Nc1ccc(F)c(C(=O)c2c[nH]c3ncc(-c4ccc(Cl)cc4)cc23)c1F`, the viability, T/C (compound 0.316 µM) is 115% and 97.9%; the viability, T/C (compound 1 µM) was 107% and 92.3%; the viability, T/C (compound 3.16 µM) is 106% and 99.3%; the viability, T/C (compound 10 µM) is 12.5% and 20.2%; the viability, T/C (compound 31.6 µM) is 103% and 16.7%; the viability, T/C (compound 100 µM) is 83.9% and 100%.

Values taken from PubChem BioAssay AID2060363 (Molecular Pharmacology Branch, DTP, NCI, 2025).
